Data from US20260306527A1, “PRMT INHIBITOR COMPOUNDS AND THE USES THEREOF” (Purdue Research Foundation, priority 2023, published 2026).
Read-outs that look alike come from different tables or passages of the source.

Columns and labels:
Format in all cases: biochemical
[1] = molecular target: PRMT3 (Homo sapiens, UniProt O60678); assay: SAHH-coupled fluorescence assay, inhibition of PRMT3; set-up: PRMT3 (residues 211-531) was cloned into the pET28a-MHL expression vector; tag of the pET28a-MHL vector (not described); made in house; host or cells: Escherichia coli BL21(DE3)
Sequence of PRMT3 (O60678 211-531): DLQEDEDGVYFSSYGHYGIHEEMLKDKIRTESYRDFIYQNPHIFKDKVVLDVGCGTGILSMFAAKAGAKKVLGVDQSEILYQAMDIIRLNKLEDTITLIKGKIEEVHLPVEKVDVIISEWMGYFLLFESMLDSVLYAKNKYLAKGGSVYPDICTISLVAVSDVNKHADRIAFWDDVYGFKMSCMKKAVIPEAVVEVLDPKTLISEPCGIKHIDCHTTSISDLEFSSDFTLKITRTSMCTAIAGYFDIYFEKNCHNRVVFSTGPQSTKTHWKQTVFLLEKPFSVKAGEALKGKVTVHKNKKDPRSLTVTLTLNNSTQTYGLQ
Method: (§1) A fluorescence-based SAHH-coupled assay was applied to study the inhibition activity of all synthesized compounds on PRMT 1 and 3.
(§2) The PRMT3 methylation assay was performed under the following conditions in a final well volume of 100 μL: 20 mM Tris (pH=7.5), 0.01% Triton X-100, 5 μM SAHH, 0.25 μM PRMT3, 30 μM AdoMet, and 15 μM ThioGlo4. […] Fluorescence was monitored on a BMG CLARIOstar microplate reader with excitation 380 nm and emission 505 nm. Data were processed by using GraphPad Prism software 8.0. All experiments were performed in duplicate.
(§3) Next, the inhibition activity of the library was investigated for five PRMT members from type I PRMTs.
as §2, with “8.0.” for “8.0. All experiments were performed in duplicate.”

[2] = molecular target: T1, PRMT1 (Homo sapiens, UniProt Q99873); assay: SAHH-coupled fluorescence assay, inhibition of PRMT1
T1 construct: made in house
T1 sequence (Q99873 whole entry, species assumed): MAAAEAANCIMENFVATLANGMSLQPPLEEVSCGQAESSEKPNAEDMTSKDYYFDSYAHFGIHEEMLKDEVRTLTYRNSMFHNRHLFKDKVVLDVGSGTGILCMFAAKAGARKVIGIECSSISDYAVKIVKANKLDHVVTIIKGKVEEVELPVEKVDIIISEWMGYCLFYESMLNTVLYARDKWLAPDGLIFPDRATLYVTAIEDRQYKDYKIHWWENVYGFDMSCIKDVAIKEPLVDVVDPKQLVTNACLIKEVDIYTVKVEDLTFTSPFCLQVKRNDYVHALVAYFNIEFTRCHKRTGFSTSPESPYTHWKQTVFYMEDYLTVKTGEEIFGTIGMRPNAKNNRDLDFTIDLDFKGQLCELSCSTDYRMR
Method: as §1
(§4) The PRMT1 methylation assay was performed under the following conditions in a final well volume of 100 μL: 2.5 mM HEPES (pH=7.0), 25 mM NaCl, 25 μM EDTA, 50 μM TCEP, 0.01% Triton X-100, 5 μM SAHH, 0.1 μM PRMT1, 10 μM AdoMet, and 10 μM ThioGlo4. […] The fluorescence signal was monitored on a BMG CLARIOstar microplate reader with excitation at 400 nm and emission at 465 nm for 15 min. Data were processed using GraphPad Prism software 8.0.
as §3
as §4, with “A fluorescence-based SAHH-coupled assay was applied to determine the inhibition activity of all synthesized compounds on PRMT 1 and 3. The PRMT1” for “The PRMT1”, “software 8.0. All experiments were performed in duplicate.” for “software 8.0.”

[3] = molecular target: PRMT6 (Homo sapiens, UniProt Q96LA8); assay: radioactive assay (Reaction Biology Corp.), inhibition of PRMT6
Sequence of PRMT6 (Q96LA8 whole entry, species assumed): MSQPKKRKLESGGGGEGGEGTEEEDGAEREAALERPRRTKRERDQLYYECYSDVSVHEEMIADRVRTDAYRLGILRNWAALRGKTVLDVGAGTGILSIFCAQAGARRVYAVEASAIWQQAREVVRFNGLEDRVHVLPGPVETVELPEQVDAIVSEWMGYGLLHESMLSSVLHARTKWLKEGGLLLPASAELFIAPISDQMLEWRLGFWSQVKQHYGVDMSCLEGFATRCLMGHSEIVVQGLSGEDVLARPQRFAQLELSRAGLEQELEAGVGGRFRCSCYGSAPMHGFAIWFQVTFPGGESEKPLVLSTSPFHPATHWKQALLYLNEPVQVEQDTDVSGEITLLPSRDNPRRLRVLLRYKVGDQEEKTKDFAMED
Method: as §3
(§5) The PRMT 4, 6 and 8 methylation assays were performed by Reaction Biology corp.

[4] = molecular target: PRMT8 (Homo sapiens, UniProt Q9NR22); assay: radioactive assay (Reaction Biology Corp.), inhibition of PRMT8
Sequence of PRMT8 (Q9NR22 whole entry, species assumed): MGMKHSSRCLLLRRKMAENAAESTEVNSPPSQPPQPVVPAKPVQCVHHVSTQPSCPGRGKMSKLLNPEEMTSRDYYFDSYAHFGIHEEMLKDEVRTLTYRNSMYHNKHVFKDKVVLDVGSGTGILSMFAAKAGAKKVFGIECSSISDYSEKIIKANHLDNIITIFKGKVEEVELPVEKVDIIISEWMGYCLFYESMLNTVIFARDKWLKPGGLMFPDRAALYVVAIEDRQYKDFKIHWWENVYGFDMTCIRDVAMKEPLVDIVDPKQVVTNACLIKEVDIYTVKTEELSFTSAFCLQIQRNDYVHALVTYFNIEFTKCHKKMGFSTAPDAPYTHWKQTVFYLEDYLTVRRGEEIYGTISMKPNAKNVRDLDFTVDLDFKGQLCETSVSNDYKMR
Method: as §3, §5

[5] = molecular target: T2, PRMT4 (Homo sapiens, UniProt Q86X55); assay: radioactive assay (Reaction Biology Corp.), inhibition of PRMT4
T2 sequence (Q86X55 1-608): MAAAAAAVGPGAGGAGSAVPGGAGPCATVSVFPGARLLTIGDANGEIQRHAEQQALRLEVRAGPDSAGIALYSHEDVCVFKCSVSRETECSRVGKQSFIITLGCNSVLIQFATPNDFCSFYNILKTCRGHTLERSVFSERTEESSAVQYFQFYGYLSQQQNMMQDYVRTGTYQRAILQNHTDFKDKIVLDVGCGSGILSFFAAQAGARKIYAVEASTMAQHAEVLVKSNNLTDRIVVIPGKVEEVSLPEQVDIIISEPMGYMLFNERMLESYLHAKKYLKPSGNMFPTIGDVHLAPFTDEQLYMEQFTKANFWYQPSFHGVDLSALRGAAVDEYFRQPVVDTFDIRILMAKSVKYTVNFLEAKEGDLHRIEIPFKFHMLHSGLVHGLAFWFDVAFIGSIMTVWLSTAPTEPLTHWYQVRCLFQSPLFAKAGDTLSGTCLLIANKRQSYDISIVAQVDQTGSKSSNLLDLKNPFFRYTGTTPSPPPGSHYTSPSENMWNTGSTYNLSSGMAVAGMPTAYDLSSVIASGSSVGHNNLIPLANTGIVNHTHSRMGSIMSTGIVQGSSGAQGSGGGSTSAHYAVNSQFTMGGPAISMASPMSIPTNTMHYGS
Method: as §3, §5

Structure (SMILES)	inhibition at 10 µM [1] [%]	inhibition at 10 µM [2] [%]	IC50 ([2]; read-out: IC50 FOR PRMT1) [µM]	inhibition at 10 µM [3] [%]	inhibition at 10 µM [4] [%]	inhibition at 10 µM [5] [%]	IC50 ([2]; read-out: IC50[μM] | PRMT1) [µM]	PRMT4 inhibition [5]	PRMT1 inhibition [2]
N=C(NCCCSC[C@H]1O[C@@H](n2cnc3c(NCCCc4ccccc4)ncnc32)[C@H](O)[C@@H]1O)NCC1CCC1 [Compound 1-89]	7	80	0.59 ± 0.073	90	85	44			
N=C(NCCCO)NCCCSC[C@H]1O[C@@H](n2cnc3c(NCCCc4ccccc4)ncnc32)[C@H](O)[C@@H]1O [Compound 1-92]	10	64	0.59 ± 0.073	84	55	54			
N=C(NCCSC[C@H]1O[C@@H](n2cnc3c(N)ncnc32)[C@H](O)[C@@H]1O)Nc1ccccc1 [Compound 5b]	1	73		75	66		3 ± 0.16		
N=C(NCCCSC[C@H]1O[C@@H](n2cnc3c(N)ncnc32)[C@H](O)[C@@H]1O)NCc1ccccc1 [Compound 5e]	61	95		98	97	97	0.21 ± 0.0066		
N=C(NCCCSC[C@H]1O[C@@H](n2cnc3c(N)ncnc32)[C@H](O)[C@@H]1O)Nc1cccc(-c2ccoc2)c1 [Compound 6i]	46	95		95	98	100			
N=C(NCCCSC[C@H]1O[C@@H](n2cnc3c(N)ncnc32)[C@H](O)[C@@H]1O)Nc1cccc(-c2cccc([N+](=O)[O-])c2)c1 [Compound 6p]	0	93		98	100	100			
N=C(NCCCSC[C@H]1O[C@@H](n2cnc3c(N)ncnc32)[C@H](O)[C@@H]1O)Nc1cccc(-c2n[nH]cc2C(F)(F)F)c1 [Compound 6q]	60	99		98	100	100			
Nc1ncnc2c1ncn2[C@@H]1O[C@H](CSCCNC(=O)NCCCc2ccccc2)[C@@H](O)[C@H]1O [Compound 7b, 1-(2-((((2S,3S,4R,5R)-5-(6-amino-9H-purin-9-yl)-3,4-dihydroxytetrahydrofuran-2-yl)methyl)thio)ethyl)-3-(3-phenylpropyl)urea]	5	13		7	-4	49			
Nc1ncnc2c1ncn2[C@@H]1O[C@H](CSCCNC(=O)NCCc2ccccc2)[C@@H](O)[C@H]1O [Compound 7c, 1-(2-((((2S,3S,4R,5R)-5-(6-amino-9H-purin-9-yl)-3,4-dihydroxytetrahydrofuran-2-yl)methyl)thio)ethyl)-3-phenethylurea]	6	8		22	-1	53			
Nc1ncnc2c1ncn2[C@@H]1O[C@H](CSCCNC(=O)NCc2ccc3cnccc3c2)[C@@H](O)[C@H]1O [Compound 7e]	8	6		9	-2	30			
CCNC(=O)NCCSC[C@H]1O[C@@H](n2cnc3c(N)ncnc32)[C@H](O)[C@@H]1O [Compound 7g, 1-(2-((((2S,3S,4R,5R)-5-(6-amino-9H-purin-9-yl)-3,4-dihydroxytetrahydrofuran-2-yl)methyl)thio)ethyl)-3-ethylurea]	4	10		3	14	27			
Nc1ncnc2c1ncn2[C@@H]1O[C@H](CSCCNC(=O)NC2CCCCC2)[C@@H](O)[C@H]1O [Compound 7i, 1-(2-((((2S,3S,4R,5R)-5-(6-amino-9H-purin-9-yl)-3,4-dihydroxytetrahydrofuran-2-yl)methyl)thio)ethyl)-3-cyclohexylurea]	2	6		-12	-10	34			
Nc1ncnc2c1ncn2[C@@H]1O[C@H](CSCCNC(=O)Nc2ccccc2Br)[C@@H](O)[C@H]1O [Compound 7m]	55	10		11	13	81			
Nc1ncnc2c1ncn2[C@@H]1O[C@H](CSCCCNC(=O)NCc2ccc3c(c2)OCO3)[C@@H](O)[C@H]1O [Compound 7o]	5	5		89	7	42			
Nc1ncnc2c1ncn2[C@@H]1O[C@H](CSCCCNC(=O)NCCCc2ccccc2)[C@@H](O)[C@H]1O [Compound 7q]	5	18		-6	16	62			
Nc1ncnc2c1ncn2[C@@H]1O[C@H](CSCCCNC(=O)NCCc2ccccc2)[C@@H](O)[C@H]1O [Compound 7r]	6	14		49	22	47			
N=C(NCCCSC[C@H]1O[C@@H](n2cnc3c(N)ncnc32)[C@H](O)[C@@H]1O)Nc1cccc(F)c1 [Compound 7s]	9	23		49	-12	58			
Nc1ccc(-c2ccc(CNC(=O)NCCSC[C@H]3O[C@@H](n4cnc5c(N)ncnc54)[C@H](O)[C@@H]3O)cc2)cc1 [Compound 8a]	3	13		72	0	40			
Nc1ncnc2c1ncn2[C@@H]1O[C@H](CSCCNCc2cccc(Br)c2)[C@@H](O)[C@H]1O [Compound 9a]	8	11		58	47				
N=C(NCCCN(CCNC(=O)NCc1ccccc1)C[C@H]1O[C@@H](n2cnc3c(N)ncnc32)[C@H](O)[C@@H]1O)NC1CCCC1 [YD1289]								selective and potent PRMT4 inhibitor	
Nc1ncnc2c1ncn2[C@@H]1O[C@H](CN(CCCNCc2cccc(-c3ccc(Cl)cc3)c2)CCNC(=O)NCc2ccccc2)[C@@H](O)[C@H]1O [YD1305]								potent and selective PRMT4 inhibitors	
Nc1ncnc2c1ncn2[C@@H]1O[C@H](CN(CCCNCc2cccc(Br)c2)CCNC(=O)NCc2ccccc2)[C@@H](O)[C@H]1O [YD1349]								potent and selective PRMT4 inhibitors	
N=C(NCCCSCC1CC(n2ccc3c(NCCCc4ccccc4)ncnc32)C(O)C1O)Nc1cccc(Br)c1 (centres unmarked) [YD1375]									inhibitory effect of YD1375 on PRMT1
